In US11771681B2, “Therapeutic compounds” (SMALL PHARMA LTD, priority 2019, dated 2023):

What was measured:
[1] = test system: human hepatocytes; experiment: In vitro intrinsic clearance in human hepatocytes; format: in vitro ADME; conditions: human (mixed gender) hepatocytes pooled from 10 donors, 0.545 million cells/mL; 5 μM; up to 60 minutes at 37° C.; calculated, weighted on ratio of D0, D1 and D2
Experimental: (§1) Human (mixed gender) hepatocytes pooled from 10 donors (0.545 million cells/mL) were used to investigate the in vitro intrinsic clearance of DMT and 6 deuterated analogues.
(§2) A concentration of 5 μM was used for all test compounds, as well as sumatriptan, serotonin, benzylamine controls. This concentration was chosen in order to maximise the signal-to-noise ratio, while remaining under the Michaelis constant (Km) for the monoamine oxidase enzyme (MAO). Diltiazem and diclofenac controls were used at a laboratory-validated concentration of 1 μM.
(§3) Test compounds were mixed with the hepatocyte suspension within a 96-well plate and incubated for up to 60 minutes at 37° C. […] At 7 time points, small aliquots were withdrawn, and the test compound/blend concentration therein was measured by LC-MS/MS. The time points measured were 2, 4, 8, 15, 30, 45 and 60 minutes. […]
(§4) The MRM transitions were determined from a preliminary analysis of DMT samples containing either no deuterium (for D0 transition), or high levels of either D1 or D2 deuteration (for the D1 and D2 transitions respectively).
(§5) The resulting concentration-time profile was then used to calculate intrinsic clearance (CLint) and half-life (t½). […] Intrinsic clearance is calculated from the slope/elimination rate constant and the formula is CLint=(−1000*slope)/cell density in 1E6 cells/ml, to give units of microlitre/min/million cells. […]

[2] = In vitro intrinsic clearance in human hepatocytes; format: in vitro ADME; conditions: both sexes, pooled hepatocytes in suspension, human (mixed gender) hepatocytes pooled from 10 donors, 0.545 million cells/mL, up to 60 minutes at 37° C., weighted on ratio of D0, D1 and D2
Experimental: as §1, §2, §3, §4, §5

## CN(C)CCc1c[nH]c2ccccc12 [DMT, N,N-dimethyltryptamine]
[1]
  Half-life: 1.54 h
[2]
  hepatocyte CLint at 5 μM: 13.8 µL/min/1e6 cells
